In this test the target is T1, P-TEFb (cdk9/cyclin T1) (Homo sapiens, UniProt P50750).
T1 construct: recombinant P-TEFb (cdk9/cyclin T1); with cyclin T1
Description: […]-ATP kinase assay with PDKtide, recombinant P-TEFb. In kind it is biochemical.

T1 sequence (P50750 whole entry): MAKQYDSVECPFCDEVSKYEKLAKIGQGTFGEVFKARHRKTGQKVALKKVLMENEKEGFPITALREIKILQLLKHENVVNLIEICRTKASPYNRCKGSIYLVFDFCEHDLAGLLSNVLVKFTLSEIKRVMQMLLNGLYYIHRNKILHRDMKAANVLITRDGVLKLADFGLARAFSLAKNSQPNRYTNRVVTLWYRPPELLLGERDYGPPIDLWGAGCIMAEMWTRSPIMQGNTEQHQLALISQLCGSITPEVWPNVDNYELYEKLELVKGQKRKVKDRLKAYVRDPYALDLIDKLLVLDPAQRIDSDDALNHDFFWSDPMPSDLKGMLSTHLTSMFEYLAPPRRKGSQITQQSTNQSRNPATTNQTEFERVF
T1 sequence (O60563 whole entry partner): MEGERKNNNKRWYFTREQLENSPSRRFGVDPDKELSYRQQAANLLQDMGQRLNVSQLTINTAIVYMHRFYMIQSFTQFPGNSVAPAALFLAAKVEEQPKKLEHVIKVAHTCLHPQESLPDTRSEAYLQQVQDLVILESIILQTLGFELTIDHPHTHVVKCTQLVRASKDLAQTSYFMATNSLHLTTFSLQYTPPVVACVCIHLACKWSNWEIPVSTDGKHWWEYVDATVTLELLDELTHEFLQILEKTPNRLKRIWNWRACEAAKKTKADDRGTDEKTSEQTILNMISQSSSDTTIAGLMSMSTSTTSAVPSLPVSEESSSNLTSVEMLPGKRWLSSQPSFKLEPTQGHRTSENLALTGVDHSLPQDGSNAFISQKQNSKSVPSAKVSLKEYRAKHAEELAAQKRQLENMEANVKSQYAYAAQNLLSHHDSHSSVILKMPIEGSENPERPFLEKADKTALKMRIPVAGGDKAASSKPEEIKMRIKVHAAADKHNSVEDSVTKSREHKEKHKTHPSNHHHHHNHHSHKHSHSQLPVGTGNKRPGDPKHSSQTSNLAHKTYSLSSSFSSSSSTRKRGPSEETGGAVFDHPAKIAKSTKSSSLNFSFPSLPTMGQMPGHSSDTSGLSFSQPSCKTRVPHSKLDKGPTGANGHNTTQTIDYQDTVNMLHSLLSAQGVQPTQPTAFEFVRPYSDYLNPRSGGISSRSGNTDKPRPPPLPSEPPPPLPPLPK

For `NNc1c(C(N)=O)c2c(N)ncnc2n1[C@@H]1O[C@H](CO)[C@@H](O)[C@H]1O` [ARC, 4-amino-6-hydrazino-7-β-d-ribofuranosyl-7H-pyrrolo-(2,3-d)-pyrimidine-5-carboxamide], the “32P-ATP kinase assay with PDKtide, recombinant P-TEFb” value was “ARC sangivamycin and toyocamycin prevent recombinant P-TEFb from phosphorylating substrate peptide (Fig. 4E)”.

As for `NC(=O)c1cn([C@@H]2O[C@H](CO)[C@@H](O)[C@H]2O)c2ncnc(N)c12` [sangivamycin], the “32P-ATP kinase assay with PDKtide, recombinant P-TEFb” value is “ARC sangivamycin and toyocamycin prevent recombinant P-TEFb from phosphorylating substrate peptide (Fig. 4E)”.

For `N#Cc1cn([C@@H]2O[C@H](CO)[C@@H](O)[C@H]2O)c2ncnc(N)c12` [toyocamycin], the “32P-ATP kinase assay with PDKtide, recombinant P-TEFb” value is “ARC sangivamycin and toyocamycin prevent recombinant P-TEFb from phosphorylating substrate peptide (Fig. 4E)”.

The values above are taken from paper PMC2651907, “ARC (NSC 188491) has identical activity to Sangivamycin (NSC 65346) including inhibition of both P-TEFb and PKC” (2009).
